These are literature values, as cited in patent publication US20210121408A1, “Methods of Administering Cannabinoid to People Diagnosed With HIV” (priority 2019, published 2021).

Regarding `CCCCCc1cc(O)c2c(c1)OC(C)(C)[C@@H]1CCC(C)=C[C@@H]21` [THC, delta-9-tetrahydrocannabinol], where the note is “ethanol, acetone, chloroform and light petroleum”, the “solubility in ethanol, acetone, chloroform and light petroleum” value was “soluble”. The solubility in water entry (water) is reported as “insoluble”.
